35 molecules from ChEMBL document CHEMBL1125003, “Synthesis, biological evaluation, and quantitative structure-activity relationship analysis of [beta-(Aroylamino)ethyl]piperazines and -piperidines and [2-[(Arylamino)carbonyl]ethyl]piperazines, -pyrazinopyridoindoles, and -pyrazinoisoquinolines. A new class of potent H1 antagonists” (J Med Chem, 1990) can be followed below.

“And” between values parts separate entries of the source, which are not always exact repeats. Identical values can stand only once.

The target of this experiment is Histamine H1 receptor (Cavia porcellus, UniProt P31389). Put plainly: Antihistaminic activity against Histamine H1 receptor was measured on isolated terminal part of guinea pig ileum. Type of experiment: tissue-based.
Histamine H1 receptor, sequence (P31389 whole entry): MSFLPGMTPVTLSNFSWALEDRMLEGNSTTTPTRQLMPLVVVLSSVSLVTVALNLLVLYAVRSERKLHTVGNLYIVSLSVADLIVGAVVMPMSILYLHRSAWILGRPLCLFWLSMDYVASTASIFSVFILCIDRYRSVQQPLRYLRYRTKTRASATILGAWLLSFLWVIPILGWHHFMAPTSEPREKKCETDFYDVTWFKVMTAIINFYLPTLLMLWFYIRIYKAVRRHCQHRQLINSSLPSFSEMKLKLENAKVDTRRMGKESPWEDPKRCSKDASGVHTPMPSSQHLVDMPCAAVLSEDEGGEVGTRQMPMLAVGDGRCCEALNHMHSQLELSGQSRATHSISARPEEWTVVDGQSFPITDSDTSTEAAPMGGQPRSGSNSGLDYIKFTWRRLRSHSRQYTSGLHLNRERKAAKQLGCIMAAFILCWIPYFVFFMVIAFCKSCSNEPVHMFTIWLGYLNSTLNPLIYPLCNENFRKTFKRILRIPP

Take `O=C(CCN1CCN2Cc3ccccc3CC2C1)Nc1ccccc1` (stereo unspecified): the IC50 (read-out: I50 (converted)) was 1340 nM. On the same count and under the same terms, under `O=C(NCCN1CCC(Cc2ccccc2)CC1)c1ccccc1Br` stands 661 nM and 673 nM; under `O=C(CCN1CCN2Cc3ccccc3CC2C1)Nc1ccccc1[N+](=O)[O-]` (stereo unspecified), 1320 nM and 1310 nM; under `O=C(CCN1CCN2Cc3[nH]c4ccccc4c3CC2C1)Nc1ccccc1[N+](=O)[O-]` (stereo unspecified), 1740 nM. With `O=C(CCN1CCC(Cc2ccccc2)CC1)Nc1ccccc1Cl`, the IC50 (read-out: I50 (converted)) was 561 nM and 560 nM. Still for that read-out and setting: under `ClN1CCN2Cc3[nH]c4ccccc4c3CC2C1` (stereo unspecified) stands 206 nM.

For the molecule `O=C(NCCN1CCN(Cc2ccccc2)CC1)c1ccccc1[N+](=O)[O-]`, the IC50 (read-out: I50 (converted)) is 1320 nM and 1570 nM. With `O=C(NCCN1CCN(Cc2ccccc2)CC1)c1ccccc1I`, for the setting “read-out: I50 (converted)”, the IC50 was 345 nM and 401 nM.

For the molecule `O=C(CCN1CCN2Cc3[nH]c4ccccc4c3CC2C1)Nc1ccccc1` (stereo unspecified), under “read-out: I50 (converted)”, the IC50 was 1600 nM.

As for `O=C(CCN1CCN2Cc3[nH]c4ccccc4c3CC2C1)Nc1ccccc1F` (stereo unspecified), the IC50 (read-out: I50 (converted)) is 1280 nM and 1270 nM. On the same count and under the same terms, in the case of `CCc1ccccc1NC(=O)CCN1CCN(Cc2ccccc2)CC1` it was 778 nM and 939 nM; in that of `O=C(CCN1CCN(Cc2ccccc2)CC1)Nc1ccccc1[N+](=O)[O-]`, 1700 nM and 2040 nM; in that of `O=C(CCN1CCC(Cc2ccccc2)CC1)Nc1ccccc1F`, 832 nM and 822 nM. On the same count and under the same terms, under `O=C(CCN1CCN2Cc3[nH]c4ccccc4c3CC2C1)Nc1ccccc1Cl` (stereo unspecified) stands 979 nM and 978 nM. In the case of `O=C(CCN1CCN(Cc2ccccc2)CC1)Nc1ccccc1F`, the IC50 (read-out: I50 (converted)) is 1320 nM and 908 nM. On the same count and under the same terms, under `O=C(CCN1CCN(Cc2ccccc2)CC1)Nc1ccccc1Cl` stands 836 nM and 1010 nM; under `O=C(NCCN1CCC(Cc2ccccc2)CC1)c1ccccc1`, 1550 nM and 1740 nM. Take `COc1ccccc1C(=O)NCCN1CCN2Cc3[nH]c4ccccc4c3CC2C1` (stereo unspecified): the IC50 (read-out: I50 (converted)) is 364 nM. Still for that read-out and setting: in the case of `c1ccc2c3c([nH]c2c1)CN1CCNCC1C3` (stereo unspecified) it was 535 nM. Same read-out and setting: under `CCc1ccccc1NC(=O)CCN1CCN2Cc3[nH]c4ccccc4c3CC2C1` (stereo unspecified) stands 634 nM. Same read-out and setting: under `O=C(NCCN1CCC(Cc2ccccc2)CC1)c1ccccc1Cl` stands 799 nM and 785 nM.

In the case of `Cc1ccccc1C(=O)NCCN1CCC(Cc2ccccc2)CC1`, the IC50 (read-out: I50 (converted)) is 1070 nM and 1190 nM. On the same count and under the same terms, in the case of `O=C(NCCN1CCN(Cc2ccccc2)CC1)c1ccccc1` it was 6940 nM and 8500 nM; in that of `CCc1ccccc1NC(=O)CCN1CCC(Cc2ccccc2)CC1`, 477 nM and 485 nM; in that of `O=C(CCN1CCC(Cc2ccccc2)CC1)Nc1ccccc1`, 1510 nM and 1520 nM. `O=C(CCN1CCN(Cc2ccccc2)CC1)Nc1ccccc1`: the IC50 (read-out: I50 (converted)) is 2170 nM and 2200 nM.

Consider `O=C(NCCN1CCN(Cc2ccccc2)CC1)c1ccccc1Br`, for which the IC50 (read-out: I50 (converted)) was 421 nM and 497 nM. On the same count and under the same terms, under `O=C(CCN1CCN2Cc3ccccc3CC2C1)Nc1ccccc1Cl` (stereo unspecified) stands 677 nM and 676 nM; under `CN1CCN2Cc3[nH]c4ccccc4c3CC2C1` (stereo unspecified), 283 nM; under `O=C(NCCN1CCN(Cc2ccccc2)CC1)c1ccccc1Cl`, 696 nM and 838 nM.

`COc1ccccc1NC(=O)CCN1CCC(Cc2ccccc2)CC1`: the IC50 is 963 nM (read-out: I50) and 965 nM (read-out: I50 (converted)). On to `NN1CCN2Cc3[nH]c4ccccc4c3CC2C1` (stereo unspecified), for which the IC50 (read-out: I50 (converted)) was 925 nM. Same read-out and setting: under `Cc1ccccc1C(=O)NCCN1CCN(Cc2ccccc2)CC1` stands 7120 nM and 7110 nM; under `CCc1ccccc1NC(=O)CCN1CCN2Cc3ccccc3CC2C1` (stereo unspecified), 525 nM and 523 nM; under `O=[N+]([O-])N1CCN2Cc3[nH]c4ccccc4c3CC2C1` (stereo unspecified), 375 nM.
